In patent US20110313056A1 (BIO SYNTECH CANADA INC., priority 2005, published 2011):

Experiments:
[1] = Glycerol 2-phosphate titration followed by 31P chemical shift and pH at different temperatures; type: physicochemical
Description: In order to measure the variation of the polyelectrolyte ionization degree (chitosan in the present case), we performed NMR measurements of the glycerol 2-phosphate (GP) ^31P chemical shift. Glycerol 2-phosphate titration curve at different temperatures allow determination pKa2^GP, δa and δb by fitting pH and δ values of the following equation
where δa and δb are the chemical shifts of ^31P in the monovalent and divalent form of GP, respectively.
This last equation is valid for ideal solutions where the proton activity coefficient is γH+=1.
We dissolve 0.594 g of glycerol 2-phosphate (Sigma, No. Cat. G-9891, 297 g/mol with 4.5 moles H2O per mole of GP) in 18 mL H2Odd and 2 mL D2O (Aldrich, No. Cat. 15,188-2-250G) in a graduate cylinder giving a CGP concentration of 100 mM. A total of 11 solutions (see Table 3) with different ionization degree are prepared from this base solution. The pH is measured with an Accumet meter, model 20 using an electrode 9803BN from Orion.

[2] = Diffusion of GP from chitosan gel into DMEM bath, phosphorus by Kjeldahl digestion; type: physicochemical; conditions: GP concentration in DMEM bath over time vs free diffusion model
Description: Here we provide evidence that supports the notion that there is no ionic cross-link between the polyelectrolyte and the counter-ion, using gels kept in contact with a bath solution to allow the weak electrolyte (glycerol 2-phosphate in this example) to diffuse out of the gel. […] A simple diffusion model predicted the diffusion profile and allowed the calculation of the diffusion constant in the gel (see section “Diffusion from a gel to a washing solution”) showing an absence of binding with the chitosan gel component.
A 7.5 mL solution (see Table 6) containing chitosan (2.93% w/v Protosan UP CL 213) was placed on ice at 4° C. To this solution, we added 2.25 mL glucosamine (2.16% w/v) drop by drop every 15 seconds followed by 1 mL glycerol 2-phosphate (GP) (33.3% w/v) and 2 mL of hydroxyethyl cellulose. […]
Samples of gel were then taken for analysis of phosphorus content and additional gel samples also taken following three subsequent washes in DMEM for 60 minutes each. Phosphorus was quantified using the established method of Kjeldahl digestion (Liao, N., Total phosphorus in Kjeldahl digests, Milwaukee, Wis.: LACHAT Instruments, 25 p., QuickChem Method 10-115-01-1-C, 1993) followed by the analysis of the absorption at 880 nm of the PO4^3− complex with ammonium molybdate and antimony potassic tartrate.
Concentration cp^m is the measured concentration from the absorption at 880 nm. […]

[3] = literature (Voet and Voet); cited from earlier work

| pKa2^GP ([1]; 5 ° C.) | pKa2^GP ([1]; 15 ° C.) | pKa2^GP ([1]; 25 ° C.) | pKa2^GP ([1]; 37 ° C.) | binding of GP to the components of the gel [2] | Structure (SMILES) | Ka1^P [3] | Ka2^P [3] |
| --- | --- | --- | --- | --- | --- | --- | --- |
| 6.13 | 6.14 | 6.16 | 6.16 | lack of binding | O=P(O)(O)OC(CO)CO [GP, glycerol 2-phosphate] |  |  |
|  |  |  |  |  | O=P(O)(O)O [phosphate, inorganic phosphate] | approximately 2.2 | ~6.8 |
